Laboratory results from ChEMBL document CHEMBL1156131, “Discovery of pyrazol-3-ylamino pyrazines as novel JAK2 inhibitors” (Bioorg Med Chem Lett, 2009).
pIC50: −log10 of the molar value.

Experiments:
[1] = target: T1, Tyrosine-protein kinase JAK2 (Homo sapiens, UniProt O60674); assay: Inhibition of JAK2 using 2 mM ATP as a substrate
[2] = target: T1, Tyrosine-protein kinase JAK2; assay: Inhibition of JAK2 using 5 mM ATP as a substrate
[3] = target: T2, Tyrosine-protein kinase JAK3 (Homo sapiens, UniProt P52333); assay: Inhibition of JAK3 using 5 mM ATP as a substrate
T2 sequence (P52333 whole entry): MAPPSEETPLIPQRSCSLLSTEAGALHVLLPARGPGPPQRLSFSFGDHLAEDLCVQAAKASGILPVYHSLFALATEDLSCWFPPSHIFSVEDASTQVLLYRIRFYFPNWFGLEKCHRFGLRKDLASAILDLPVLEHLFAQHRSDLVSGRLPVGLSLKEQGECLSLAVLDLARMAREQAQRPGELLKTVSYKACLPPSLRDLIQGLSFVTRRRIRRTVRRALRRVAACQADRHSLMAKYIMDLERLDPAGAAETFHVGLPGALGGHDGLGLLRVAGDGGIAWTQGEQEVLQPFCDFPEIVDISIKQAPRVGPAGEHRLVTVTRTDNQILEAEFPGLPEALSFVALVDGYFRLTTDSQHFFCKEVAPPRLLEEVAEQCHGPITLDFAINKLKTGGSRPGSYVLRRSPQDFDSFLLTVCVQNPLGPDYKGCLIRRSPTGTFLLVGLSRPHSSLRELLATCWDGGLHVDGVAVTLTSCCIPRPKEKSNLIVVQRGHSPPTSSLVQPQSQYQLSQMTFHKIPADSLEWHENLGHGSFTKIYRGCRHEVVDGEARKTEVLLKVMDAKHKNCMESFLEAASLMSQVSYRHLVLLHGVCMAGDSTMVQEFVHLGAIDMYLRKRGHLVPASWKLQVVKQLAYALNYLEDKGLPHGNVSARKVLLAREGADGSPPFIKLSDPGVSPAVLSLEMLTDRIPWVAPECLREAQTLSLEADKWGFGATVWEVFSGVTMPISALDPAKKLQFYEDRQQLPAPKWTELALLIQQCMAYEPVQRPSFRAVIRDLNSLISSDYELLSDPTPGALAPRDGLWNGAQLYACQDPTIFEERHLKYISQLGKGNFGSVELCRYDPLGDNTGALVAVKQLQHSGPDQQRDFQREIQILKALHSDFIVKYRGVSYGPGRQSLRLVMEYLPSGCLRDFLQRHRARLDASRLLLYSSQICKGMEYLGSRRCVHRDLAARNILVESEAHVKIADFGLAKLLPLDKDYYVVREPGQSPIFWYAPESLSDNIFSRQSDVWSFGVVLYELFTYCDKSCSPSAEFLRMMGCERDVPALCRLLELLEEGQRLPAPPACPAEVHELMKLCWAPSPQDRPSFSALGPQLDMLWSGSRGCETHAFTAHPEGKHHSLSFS

[4] = target: T1, Tyrosine-protein kinase JAK2; assay: Inhibition of Tel-fused JAK2
[5] = target: T3, Tyrosine-protein kinase JAK3 (Homo sapiens) (UniProt P52333); assay: Inhibition of Tel-fused JAK3
T3 sequence (whole entry): T2 sequence (P52333 whole entry)

[6] = target: Cyclin-dependent kinase 2 (Homo sapiens, UniProt P24941); assay: Inhibition of CDK2
Aurora kinase B = Aurora kinase B (Homo sapiens, UniProt Q96GD4); assay: Inhibition of Aurora B
Chain of Aurora kinase B (Q96GD4 whole entry): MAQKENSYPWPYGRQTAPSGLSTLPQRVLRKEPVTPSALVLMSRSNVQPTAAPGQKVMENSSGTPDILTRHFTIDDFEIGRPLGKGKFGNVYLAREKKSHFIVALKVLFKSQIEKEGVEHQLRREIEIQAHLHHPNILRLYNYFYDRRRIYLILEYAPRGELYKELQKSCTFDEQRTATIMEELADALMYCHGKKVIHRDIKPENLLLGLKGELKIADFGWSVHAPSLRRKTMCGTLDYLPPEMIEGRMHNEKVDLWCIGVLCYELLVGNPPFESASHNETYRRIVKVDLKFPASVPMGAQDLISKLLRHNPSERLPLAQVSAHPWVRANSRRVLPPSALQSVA

[7] = target: High affinity nerve growth factor receptor (Homo sapiens, UniProt P04629); assay: Inhibition of TRKA
Chain of High affinity nerve growth factor receptor (P04629 whole entry): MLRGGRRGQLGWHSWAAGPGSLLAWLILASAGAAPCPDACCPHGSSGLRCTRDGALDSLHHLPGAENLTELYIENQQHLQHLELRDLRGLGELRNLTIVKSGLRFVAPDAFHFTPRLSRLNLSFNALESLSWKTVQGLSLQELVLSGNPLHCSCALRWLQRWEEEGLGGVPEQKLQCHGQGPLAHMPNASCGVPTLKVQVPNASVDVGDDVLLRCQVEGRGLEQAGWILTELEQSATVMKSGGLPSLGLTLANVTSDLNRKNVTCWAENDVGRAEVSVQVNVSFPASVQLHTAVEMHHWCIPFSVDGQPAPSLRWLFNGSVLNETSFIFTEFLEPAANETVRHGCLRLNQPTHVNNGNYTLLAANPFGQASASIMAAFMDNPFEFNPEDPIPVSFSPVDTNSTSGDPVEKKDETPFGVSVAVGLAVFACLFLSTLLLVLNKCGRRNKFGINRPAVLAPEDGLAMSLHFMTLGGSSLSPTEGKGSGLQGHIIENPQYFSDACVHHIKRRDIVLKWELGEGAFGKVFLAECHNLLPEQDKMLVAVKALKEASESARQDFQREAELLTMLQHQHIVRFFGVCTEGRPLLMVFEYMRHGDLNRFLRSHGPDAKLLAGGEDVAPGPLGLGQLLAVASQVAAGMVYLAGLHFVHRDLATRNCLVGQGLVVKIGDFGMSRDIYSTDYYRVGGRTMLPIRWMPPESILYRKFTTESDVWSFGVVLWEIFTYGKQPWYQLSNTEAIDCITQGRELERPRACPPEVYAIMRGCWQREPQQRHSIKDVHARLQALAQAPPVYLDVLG

[8] = Clearance in Wistar rat at 10 mg/kg, po and 3 mg/kg, iv; format: ADME, organism-based; details: in vivo
[9] = Volume of distribution at steady state in Wistar rat at 10 mg/kg, po and 3 mg/kg, iv; format: ADME, organism-based; details: in vivo, read-out: Vdss
[10] = Half life Wistar rat at 10 mg/kg, po and 3 mg/kg, iv; format: ADME, organism-based; details: in vivo
Mus musculus [11] = assay: Ex vivo inhibition of STAT5 phosphorylation in NCr mouse implanted with Tel-fused JAK expressing mouse BAF3 cells at 5 mg/kg, po after 2 hrs; format: functional; details: BaF3, 2 h
Mus musculus [12] = assay: Ex vivo inhibition of STAT5 phosphorylation in NCr mouse implanted with Tel-fused JAK expressing mouse BAF3 cells at 10 mg/kg, po after 2 hrs; format: functional; details: BaF3, 2 h
Mus musculus [13] = assay: Ex vivo inhibition of STAT5 phosphorylation in NCr mouse implanted with Tel-fused JAK expressing mouse BAF3 cells at 25 mg/kg, po after 2 hrs; format: functional; details: BaF3, 2 h
Mus musculus [14] = assay: Ex vivo inhibition of STAT5 phosphorylation in NCr mouse implanted with Tel-fused JAK expressing mouse BAF3 cells at 25 mg/kg, po after 4 hrs; format: functional; details: BaF3, 4 h
[15] = Clearance in Beagle dog at 10 mg/kg, po and 3 mg/kg, iv; format: ADME, organism-based, Canis lupus familiaris; details: in vivo
[16] = Volume of distribution at steady state in Beagle dog at 10 mg/kg, po and 3 mg/kg, iv; format: ADME, organism-based, Canis lupus familiaris; details: in vivo, read-out: Vdss
[17] = Half life Beagle dog at 10 mg/kg, po and 3 mg/kg, iv; format: ADME, organism-based, Canis lupus familiaris; details: in vivo

T1 sequence (O60674 whole entry): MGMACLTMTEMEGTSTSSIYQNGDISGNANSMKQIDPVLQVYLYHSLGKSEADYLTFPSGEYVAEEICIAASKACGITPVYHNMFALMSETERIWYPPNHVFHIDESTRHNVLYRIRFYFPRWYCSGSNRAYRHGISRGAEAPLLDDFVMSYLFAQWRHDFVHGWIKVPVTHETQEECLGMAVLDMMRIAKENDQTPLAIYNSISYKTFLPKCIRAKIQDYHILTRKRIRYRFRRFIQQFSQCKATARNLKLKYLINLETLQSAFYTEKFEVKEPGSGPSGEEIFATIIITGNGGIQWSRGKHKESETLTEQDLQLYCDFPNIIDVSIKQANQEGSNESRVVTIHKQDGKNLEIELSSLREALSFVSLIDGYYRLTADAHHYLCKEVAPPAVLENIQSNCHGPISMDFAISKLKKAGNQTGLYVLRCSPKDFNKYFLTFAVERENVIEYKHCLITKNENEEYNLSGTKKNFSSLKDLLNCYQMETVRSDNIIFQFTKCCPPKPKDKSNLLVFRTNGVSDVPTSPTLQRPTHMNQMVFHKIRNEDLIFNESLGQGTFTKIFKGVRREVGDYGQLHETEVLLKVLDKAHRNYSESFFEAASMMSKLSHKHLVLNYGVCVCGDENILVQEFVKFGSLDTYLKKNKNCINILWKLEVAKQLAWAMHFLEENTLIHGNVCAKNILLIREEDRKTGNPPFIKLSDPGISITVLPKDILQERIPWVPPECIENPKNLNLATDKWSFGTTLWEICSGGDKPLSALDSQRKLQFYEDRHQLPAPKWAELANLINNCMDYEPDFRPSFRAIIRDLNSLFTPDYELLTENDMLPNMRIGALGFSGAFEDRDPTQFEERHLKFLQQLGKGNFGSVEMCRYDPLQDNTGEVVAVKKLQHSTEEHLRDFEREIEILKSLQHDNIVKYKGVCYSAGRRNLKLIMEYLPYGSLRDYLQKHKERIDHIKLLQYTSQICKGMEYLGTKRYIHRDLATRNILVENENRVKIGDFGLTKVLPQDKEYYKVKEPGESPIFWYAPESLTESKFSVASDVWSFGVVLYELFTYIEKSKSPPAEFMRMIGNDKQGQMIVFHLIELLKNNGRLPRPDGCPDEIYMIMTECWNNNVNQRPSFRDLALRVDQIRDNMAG

Structure (SMILES): Cc1cc(Nc2nc(N[C@H](C)c3ccc(F)cn3)c(C#N)nc2C)n[nH]1
- pIC50 [1]: 7.12
- pIC50 [2]: 6.04

Structure (SMILES): Cc1cc(Nc2nc(NC(C)c3ccc(F)cn3)c(C#N)nc2C)n[nH]1 (stereo unspecified)
- pIC50 [1]: > 8.52
- pIC50 [2]: 7.33

Structure (SMILES): Cc1cc(Nc2nc(O[C@@H](C)c3ccc(F)cn3)c(C#N)nc2C)[nH]n1
- pIC50 [1]: 8.40
- pIC50 [2]: 6.85
- pIC50 [3]: < 4.52

Structure (SMILES): Cc1cc(Nc2cnc(C#N)c(N[C@@H](C)c3ccc(F)cn3)n2)n[nH]1
- GI50 [4]: 60 nM
- GI50 [5]: 1100 nM
- pIC50 [6]: 7.52
- pIC50 (Aurora kinase B): 6.17
- pIC50 [7]: 6.17
- pIC50 [1]: > 8.52
- pIC50 [2]: 8.52
- pIC50 [3]: 5.29
- clearance [8]: 25 mL/min/kg
- Vd [9]: 2.2 L/kg
- half-life [10]: 1.2 h
- inhibition in vivo at 5 mg/kg (Mus musculus [11]): > 80%
- inhibition in vivo at 10 mg/kg (Mus musculus [12]): > 90%
- inhibition in vivo at 25 mg/kg (Mus musculus [13]): > 90%
- inhibition in vivo at 25 mg/kg (Mus musculus [14]): > 90%

Structure (SMILES): CC(C)Oc1cc(Nc2cncc(N[C@@H](C)c3ccc(F)cn3)n2)[nH]n1
- pIC50 [1]: 8.00
- pIC50 [2]: 6.38

Structure (SMILES): Cc1cc(Nc2nc(N[C@H](C)c3ncc(F)cn3)c(C#N)nc2C)[nH]n1
- pIC50 [1]: 7.30
- pIC50 [2]: 4.98
- pIC50 [3]: < 4.52

Structure (SMILES): Cc1cc(Nc2cncc(N[C@@H](C)c3ccc(F)cn3)n2)[nH]n1
- pIC50 [1]: > 8.52
- pIC50 [2]: 8.52
- pIC50 [3]: 4.93

Structure (SMILES): Cc1cc(Nc2nc(N[C@@H](C)c3ccc(F)cn3)c(C#N)nc2C)n[nH]1
- GI50 [4]: 110 nM
- pIC50 [6]: 6.34
- pIC50 [1]: > 8.52
- pIC50 [2]: 7.96

Structure (SMILES): C[C@H](Nc1nc(Nc2cc(C3CC3)n[nH]2)cnc1C#N)c1ccc(F)cn1
- pIC50 [1]: > 8.52
- pIC50 [2]: 7.60
- pIC50 [3]: 4.57

Structure (SMILES): Cc1cc(Nc2cnc(C#N)c(NC(C)c3ccc(F)cn3)n2)n[nH]1 (stereo unspecified)
- pIC50 [1]: > 8.52
- pIC50 [2]: 8.30
- pIC50 [3]: 4.89

Structure (SMILES): COc1cc(Nc2cncc(N[C@@H](C)c3ccc(F)cn3)n2)[nH]n1
- pIC50 [1]: 8.52
- pIC50 [2]: 8.10

Structure (SMILES): Cc1cc(Nc2nc(N[C@@H](C)c3ncc(F)cn3)c(C#N)nc2C)n[nH]1
- GI50 [4]: 220 nM
- GI50 [5]: 7400 nM
- pIC50 [6]: 6.39
- pIC50 (Aurora kinase B): 6.07
- pIC50 [7]: 5.83
- pIC50 [1]: > 8.52
- pIC50 [2]: 7.06
- pIC50 [3]: 4.58
- clearance [8]: 13 mL/min/kg
- Vd [9]: 1.6 L/kg
- half-life [10]: 1.6 h
- clearance [15]: < 2 mL/min/kg
- Vd [16]: 1.1 L/kg
- half-life [17]: 7 h
- inhibition in vivo at 5 mg/kg (Mus musculus [11]): > 80%
- inhibition in vivo at 10 mg/kg (Mus musculus [12]): > 90%
- inhibition in vivo at 25 mg/kg (Mus musculus [13]): > 95%

Structure (SMILES): Cc1cc(Nc2cncc(N[C@@H](C)c3ncc(F)cn3)n2)n[nH]1
- pIC50 [1]: > 8.52
- pIC50 [2]: 8.52
- pIC50 [3]: 4.86

Structure (SMILES): Cc1cc(Nc2nc(N[C@@H](C)c3ccc(F)cn3)cnc2C)[nH]n1
- pIC50 [1]: > 8.52
- pIC50 [2]: 7.74

Structure (SMILES): Cc1cc(Nc2cnc(C#N)c(N[C@@H](C)c3ncc(F)cn3)n2)n[nH]1
- GI50 [4]: 160 nM
- pIC50 [6]: 7.30
- pIC50 [1]: > 8.52
- pIC50 [2]: 8.22

Structure (SMILES): Cc1cc(Nc2nc(O[C@H](C)c3ccc(F)cn3)c(C#N)nc2C)[nH]n1
- pIC50 [1]: 6.97
- pIC50 [2]: 5.33
- pIC50 [3]: < 4.52
